Experimental findings from PubChem BioAssay (NCI) are described below.

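Following 48 hours of exposure in 96-well plates, responses at five concentrations were used to interpolate endpoints linearly. Definition used: TGI = concentration required for complete inhibition of growth.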

Some test systems named below: A549 NSCLC; HL-60(TB) leukemia; SNB-19 CNS; UACC-257 melanoma; MDA-MB-231 breast; NCI-H522 lung; BT-549 breast; K-562 leukemia; OVCAR-3 ovarian; TK-10 renal; SK-OV-3 ovarian; LOX IMVI melanoma; SF-268 CNS; 786-0 renal.
Holding throughout (test): DTP human tumour cell line panel, 48 h

The term TGI denotes the concentration giving total growth inhibition. A low value points to greater sensitivity of the cells. For `CCC1(CC)C(=O)NN(C(=O)c2ccc(Cl)cc2)C1=O`, the TGI in the assay on A549 NSCLC, with HL-60(TB) leukemia, in the assay with SNB-19 CNS, in the assay on UACC-257 melanoma, in the assay with MDA-MB-231 breast and with NCI-H522 lung was over 100 µM in each case. Moreover, the TGI in the assay on BT-549 breast, in the assay with K-562 leukemia, in the assay on OVCAR-3 ovarian, in the assay on TK-10 renal, in the assay with SK-OV-3 ovarian and in the assay on LOX IMVI melanoma was over 100 µM throughout. Also, the TGI in the assay with SF-268 CNS and with 786-0 renal was over 100 µM throughout.

Turning to `CC(C)(C)Cc1cc(O)ccc1O`, the TGI with A549 NSCLC was over 100 µM; in the assay with HL-60(TB) leukemia it was 26.6 µM; with SNB-19 CNS, over 100 µM; in the assay with UACC-257 melanoma, over 100 µM; with MDA-MB-231 breast, over 100 µM; in the assay with NCI-H522 lung, 86.7 µM. Also, the TGI in the assay on BT-549 breast, in the assay with K-562 leukemia, with OVCAR-3 ovarian, with TK-10 renal, with SK-OV-3 ovarian and with LOX IMVI melanoma was over 100 µM throughout. The TGI in the assay with SF-268 CNS and with 786-0 renal was over 100 µM each time.
